According to EP0603240B1, “SAFENING HERBICIDAL PYRAZOLYLSULFONYLUREAS” (priority 1991, dated 1993):

How the values were obtained:
corn [1] = experiment: Example 19, Procedure II: Herbicide No. 1 + ERADICANE EXTRA with added antidotes; assay type: in vivo
Method: (§1) Containers were filled and compacted with a fumigated silt loam top soil to a depth of about 1.3 cm from the top of the container. A first container was designated as an untreated control, a second container was designated as a herbicide control, and a third container was designated as a herbicide + antidote test container. Each of the containers was seeded with a crop species. A measured amount of herbicide dispersed or dissolved in acetone was applied to a measured quantity of soil. To this same quantity of soil treated with herbicide, there was added a measured amount of antidote dispersed or dissolved in acetone. The quantity of soil treated with the herbicide and antidote was thoroughly mixed to incorporate the herbicide and antidote in the soil uniformly. The seed bed in the third container of soil was covered with the soil treated with the herbicide and antidote and the container was leveled. For each test series, the seed beds of the first and second containers were likewise covered by soil layers. the cover layer of the first container was not treated with herbicide or antidote.
(§2) The containers were then placed on a bench in a greenhouse and sub-irrigated as required for the duration of the test. […] Plant response is measured in terms of percent injury. Antidote efficacy is indicated as the difference in plant injury by the herbicide(s) without the antidote and with the antidote.
(§3) This procedure is the same as Procedure I, but modified in the manner that after incorporation of the chemicals (herbicide and antidote) the containers with the covered seedbed were treated with an initial overhead irrigation equivalent to 0.6 cm rainfall, then subsequently sub-irrigated as required on greenhouse benches.
In the test reported in this example, the herbicidal composition was similar to that used in Example 16 in that Herbicide No. 1 was combined with EPTC (Herbicide No. 4) as a co-herbicide and the antidotes included Nos. 1, 2, 7, 13 and 15. However, in this test the EPTC was introduced as a formulation of ERADICANE (EPTC + the antidote R-25788, i.e., Antidote No. 1) at an application rate of 8.96 kg/ha. Thus, in this test two antidotes were present, viz. R-25788 and one of the auxilliary antidotes, No. 2, 13 and 15.
The test reported in this example was performed in the same manner and with the same antidotes used in Example 18, the only difference being the substitution of the commercial herbicidal product ERADICANE® EXTRA for ERADICANE®. ERADICANE EXTRA is a formulation containing both an antidote, i.e., R-29148 (Antidote No. 5 herein), and an extender, dietholate.

corn [2] = experiment: Example 5, Procedure I: Herbicide No. 1 + alachlor (No. 7) with Antidote Nos. 15 and 16; assay type: in vivo; settings: Herbicide No.1 6.72 + No.7 2.24 kg/ha + antidote 2.24 kg/ha
Method: as §1, §2
This example describes tests with Antidote Nos. 15 and 16 to safen Herbicide No. 1 according to Procedure I using corn and the weeds barnyardgrass and velvetleaf as the test plants.
In the tests described in this example, the same procedure described in Example 4 was performed simultaneously therewith and under the same conditions, except that a co-herbicide, alachlor, was included in the same composition with Herbicide No. 1 and Antidote Nos. 15 and 16. Alachlor (Herbicide No. 7 herein) is the active ingredient in the commercial product LASSO® herbicide.

corn [3] = experiment: Example 9, Procedure II: Herbicide No. 1 + pretilachlor (No. 13) with antidotes; assay type: in vivo
Method: as §1, §2, §3
(§4) In this example the safening effect on a composition comprising Herbicide No. 1 and another leading rice herbicide, i.e., Herbicide No. 13, was investigated using the same antidotes and test procedure described in the preceding example. Herbicide No. 13 is pretilachlor, active ingredient used in the commercial rice herbicides RIFIT®, SOFIT® and SOFIT® SUPER.

corn [4] = experiment: Example 25, greenhouse preemergence test: Antidote Nos. 1 and 2 against Herbicide Nos. 1-3; assay type: in vivo, Corn (Pioneer 3424 variety); settings: preemergence
Method: The chemicals were tested in both preemergence and post-emergence modes of application. The herbicides were prepared and applied as wettable powders; dichlormid was applied as an emulsifiable concentrate, while the naphthalic anhydride was applied as a coating on the corn seed prior to planting.
(§5) Test data from the preemergence tests are shown in Table 25A and from the post-emergence tests in Table 25B. In the tables, the concentration of chemicals is shown in terms of active ingredient in grams per hectare (G/ha); concentrations of the naphthalic anhydride were not measured per se, but were present as in conventional, normally-coated applications. Corn injury is shown in terms of percent inhibition of growth.

corn [5] = experiment: Example 25, greenhouse post-emergence test: Antidote Nos. 1 and 2 against Herbicide Nos. 1-3; assay type: in vivo, Corn (Pioneer 3424 variety); settings: Herbicide Nos. 1-3
Method: Additional tests were conducted in the greenhouse in order to evaluate the antidotal efficacy of Antidote Nos. 1 (dichlormid) and 2 (naphthalic anhydride) in protecting corn from the herbicidal activity of Herbicide Nos. 1-3 (i.e., NC-319, NC-319 EX and NC-311, respectively). The chemicals were tested in both preemergence and post-emergence modes of application. The herbicides were prepared and applied as wettable powders; dichlormid was applied as an emulsifiable concentrate, while the naphthalic anhydride was applied as a coating on the corn seed prior to planting.
Corn seeds (Pioneer 3424 variety) were planted in alluvial soil containing compost and fertilizer in pots 12 cm. in diameter. Test chemicals were applied with a spray gun at the spray volume rate of 11.2 l/ha at the time of seeding in the preemergence tests and seven (7) days after seeding in the post-emergence tests, when the check (control) plants were at the 16-20 cm., 3.0-3.2 leaf stage, and naphthalic anhydride coated seed grown plants were at the 14-16 cm., 2.8-3.0 leaf stage.
as §5

corn [6] = experiment: Example 7, Procedure II: Herbicide No. 1 + metolachlor (No. 12) with antidotes; assay type: in vivo; settings: Herbicide Nos. 1 and 12, Table 7
Method: as §1, §2, §3
(§6) In this example, Procedure II described above was followed. The data from the tests in this example is shown in Table 6 and represents averages of duplicate replications.
The tests in this example followed the same procedure and antidotes used in Example 6. However, Herbicide No. 12 (metolachlor) was used as the co-herbicide with Herbicide No. 1.

corn [7] = experiment: Example 11, Procedure II: Herbicide No. 1 + metazachlor (No. 14) with antidotes; assay type: in vivo; settings: Herbicides 1 and 14, Table 11
Method: as §1, §2, §3
In this example, yet another α-chloroacetanilide co-herbicide, metazachlor (Herbicide No. 14) was combined with Herbicide No. 1 for investigation of the effect of various safeners on that composition. Metazachlor is the active ingredient in the commercial herbicide BUTISAN® S, used here as a 500 g/L formulation.

corn [8] = experiment: Example 13, Procedure II: Herbicide No. 1 + acetochlor (No. 6) with dichloroacetamide antidotes; assay type: in vivo; settings: for safening of corn, assessment in words: Herbicide Nos. 1 and 6, Table 13
Method: as §1, §2, §3
In this example a plurality of dichloroacetamide antidotes were tested for their safening efficacy against a herbicidal composition comprising Herbicide No. 1 and a co-herbicide, acetochlor (Herbicide No. 6) in corn in the presence of velvetleaf. The procedure used in this example was Procedure II above.

corn [9] = experiment: Example 12, Procedure II: Herbicide No. 1 + acetochlor (No. 6) with thirteen antidotes; assay type: in vivo
Method: as §1, §2, §3
This example was designed to investigate the efficacy of thirteen different antidotes from different classes of chemistry as safeners against compositions of Herbicide No. 1 and acetochlor (Herbicide No. 6) as co-herbicide. Acetochlor is the active ingredient in the commercial herbicides GUARDIAN® and WENNER®.
The test procedure used in this example was Procedure II described above.

[10] = test system: velvetleaf (Abutilon theophrasti); experiment: Example 9, Procedure II: Herbicide No. 1 + pretilachlor (No. 13) with antidotes; assay type: in vivo; settings: Herbicide No.13 2.24 kg/ha alone, no antidote
Method: as §1, §2, §3
(§7) In the series of greenhouse tests described below, for routine screening purposes the herbicide/antidote compositions were tested in crop/weed combinations involving corn as the crop and either or both of the weeds barnyardgrass (Echinochloa crusgalli), a monocotyledonous weed, and velvetleaf (Abutilon theophrasti), a dicotyledonous weed. In the tables below, these weeds are indicated by the symbols "BYG" and "VL", respectively.
as §4

[11] = test system: barnyardgrass (Echinochloa crusgalli); experiment: as above; assay type: in vivo; settings: Herbicide No.13 2.24 kg/ha alone, no antidote
Method: as §1, §2, §3, §7, §4

corn [12] = experiment: Example 15, Procedure II: Herbicide No. 1 + butylate (No. 10) with antidotes; assay type: in vivo; settings: Herbicide No. 1 1.12 and 0.56 kg/ha + Herbicide No. 10 6.72 kg/ha PPI, Table 15
Method: as §1, §2, §3
This example describes experiments designed to investigate the antidotal efficacy of a plurality of antidotes against the herbicidal action of a combination of Herbicide No. 1 and butylate in corn and the prevalent weeds barnyardgrass and velvetleaf. The antidotes used in these experiments were Nos. 1-10, 12, 13 and 15.
The test procedure used in these experiments was that of Procedure II described above. The antidotes were applied to a soil cover layer by pipet after spraying the herbicides onto the soil, followed by incorporation and overhead irrigation.

corn [13] = experiment: Example 6, Procedure II: Herbicide No. 1 + alachlor (No. 7) with antidotes; assay type: in vivo; settings: Herbicides 1 and 7 applied PPI, Table 6
Method: as §1, §2, §3
This example was designed to investigate the antidotal efficacy of a plurality of antidotal compounds against a composition comprising Herbicide No. 1 in combination with Herbicide No. 7 (alachlor). The antidotal compounds used herein were Nos. 1, 2, 7, 13 and 15.
as §6

C=CCN(CC=C)C(=O)C(Cl)Cl [Antidote No. 1, Acetamide, N,N-bis(2-propenyl)-α,α-dichloro]
corn injury (corn [1]; Herbicide No. 1 + ERADICANE EXTRA + added antidote, highest rates of antidotes and herbicides): 25% | % Injury Corn (corn [2]): 50% | safening of corn, assessment in words (corn [3]; Herbicide Nos. 1 and 13, Table 9): best safening effect across four treatments | inhibition at 7.41 g/ha (corn [4]; Zea mays, pre-emergence, Herbicide No. 3 0.25 G/ha + Antidote No. 1 7.41 G/ha, read-out: corn injury, percent inhibition of growth): 43% | safening of corn, assessment in words (corn [5]): did not exhibit noticeable safening effect | safening of corn, assessment in words (corn [6]): best safening effect across four treatments | safening of corn, assessment in words (corn [7]): outperformed the antidotes (2 and 13) of other chemistries

CC1(C)CN2C(=O)CCC2(C)N(C(=O)C(Cl)Cl)C1 (centres unmarked) [Antidote No. 14, 5-Dichloroacetyl-3,3,6-trimethyl-9-oxo-1,5-diazabicyclo[4.3.0]nonane]
safening of corn, assessment in words (corn [8]): Commercial-level safening was exhibited at all rates and combinations

CC1CN(C(=O)C(Cl)Cl)C(C)(C)O1 (centres unmarked) [Antidote No. 5, Oxazolidine, 3-(dichloroacetyl)-2,2,5-trimethyl-]
safening of corn, assessment in words (corn [8]): Commercial-level safening was exhibited at all rates and combinations

CC1(C)CN2C(=O)CCC2(C)N(C(=O)C(Cl)Cl)C1 (centres unmarked) [compound 14]
% Injury Corn (corn [8]; in vivo): 5%

O=C1OC(=O)c2cccc3cccc1c23 [Antidote No. 2, 1H, 3H-Naphtho [1,8-cd]pyran-1,3-dione]
safening of corn, assessment in words (corn [4]; Herbicide Nos. 1-3 at the two highest rates): significantly reduced corn injury | safening of corn, assessment in words (corn [5]): significantly reduced corn injury by Herbicides No. 1 and 3 at the highest rates of application, but not at lower rates | safening of corn, assessment in words (corn [9]; Herbicide No. 1:Herbicide 6:Antidote 0.56:2.24:2.24 kg/ha): performed at commercial levels

CCCOCCN(C(=O)CCl)c1c(CC)cccc1CC [Herbicide No.13]
% Injury VL [10]: 5% | % Injury BYG [11]: 100% | % Injury Corn (corn [3]; Herbicide No.13 2.24 kg/ha alone, no antidote): 0%

CC1(C(Cl)Cl)OCCO1 [Antidote No. 13, 1,3-Dioxolane, 2-(dichloromethyl)-2-methyl-]
safening of corn, assessment in words (corn [1]; Herbicide No. 1 + ERADICANE EXTRA, Table 19): most efficacious antidote across all four treatments | safening of corn, assessment in words (corn [12]): best safening effect at the highest rate | safening of corn, assessment in words (corn [9]; Herbicide No. 1:Herbicide 6:Antidote 0.14:2.24:2.24 kg/ha): performed at commercial levels | safening of corn, assessment in words (corn [13]): best safening effect across four treatments
